For 25 compounds, Ki results are on record in patent publication US8653100B2 (AbbVie Inc., priority 2008, dated 2014).

SMILES strings stand for the structures. Where a name gives a salt, the structure may show the parent alone.

human GlyT1c transporter, sequence (P48067 whole entry): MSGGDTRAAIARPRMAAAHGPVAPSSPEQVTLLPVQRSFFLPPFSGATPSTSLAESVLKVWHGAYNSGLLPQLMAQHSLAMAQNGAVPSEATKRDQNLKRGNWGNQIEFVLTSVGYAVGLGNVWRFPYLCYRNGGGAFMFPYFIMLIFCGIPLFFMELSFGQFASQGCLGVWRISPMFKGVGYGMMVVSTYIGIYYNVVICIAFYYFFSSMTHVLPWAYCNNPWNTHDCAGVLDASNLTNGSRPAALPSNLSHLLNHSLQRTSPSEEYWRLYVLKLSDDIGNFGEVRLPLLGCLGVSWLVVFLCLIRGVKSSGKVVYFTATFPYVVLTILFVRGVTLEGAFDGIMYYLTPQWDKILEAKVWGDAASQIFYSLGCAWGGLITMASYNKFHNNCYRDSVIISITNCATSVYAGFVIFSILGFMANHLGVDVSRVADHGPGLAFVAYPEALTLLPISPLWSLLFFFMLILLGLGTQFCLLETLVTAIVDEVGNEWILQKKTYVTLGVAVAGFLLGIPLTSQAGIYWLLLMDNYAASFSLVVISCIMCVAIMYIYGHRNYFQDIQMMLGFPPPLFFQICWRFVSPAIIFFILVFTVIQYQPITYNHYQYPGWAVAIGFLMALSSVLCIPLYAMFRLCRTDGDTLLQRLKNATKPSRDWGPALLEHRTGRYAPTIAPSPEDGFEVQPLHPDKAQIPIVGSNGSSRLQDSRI

In this test the target is human GlyT1c transporter (Homo sapiens (Human), UniProt P48067). Description: Radioligand binding assay using recombinant CHO cell membranes expressing human GlyT1. The conditions noted are these: examples 88-204, radioligand not specified by footnote, read-out: radioligand binding Kiapp. How it is done:
2. Radioligand binding assays using recombinant CHO cell membranes expressing human GlyT1:
Radioligand binding to human GlyT1c transporter-expressing membranes was carried out as described in Mezler et al., Molecular Pharmacology 74:1705-1715, 2008.
More specifically, [^3H]-(R)-NPTS radioligand binding to human GlyT1c transporter-expressing membranes was measured in duplicate in a total volume of 200 μl in 96-well plates. To 100 μl of membrane suspension (yielding a final membrane protein concentration of 50 μg/ml) in assay buffer (120 mM NaCl, 2 mM KCl, 10 mM Hepes, 1 mM MgCl2, 1 mM CaCl2, pH 7.5) […] of [^3H]-(R)-NPTS (0.5 nM final) were added in assay buffer. For competition experiments 10 μl of buffer or unlabeled compound solution obtained from dilution series of test compounds in DMSO followed. An intermediate 1:10 dilution in assay buffer yielded a final DMSO concentration of 1%. Non-specific binding was determined in the presence of 10 μM Org24598 (or its racemate Org24461) for [^3H]-(R)-NPTS. After incubation at room temperature for 1 h, the incubation mixture was harvested (Tomtec Mach III U Harvester) through 96-well GF/B filter plates (PerkinElmer), presoaked for 1 h with 40 μl per well of 0.1% polyethylene-imine (PEI). After washing twice with ice-cold 50 mM Tris-HCl pH 7.4 buffer, drying and addition of 35 μl scintillator (BetaplateScint, PerkinElmer) per well followed. The radioactivity was determined by liquid scintillation spectrometry in a MicroBeta (PerkinElmer) plate counter.
Data analysis: For binding of [^3H]-(R)-NPTS to cell membranes, the calculation of Kd and Bmax values from the saturation binding assays and the IC50 values from the displacement binding was performed by iterative non-linear regression analysis adapted from the ‘Ligand’ program (Munson and Rodbard, 1980). Radioligand displacement curves in absence or in presence of increasing concentrations of tested compounds were fitted using a one-site fit and the apparent Ki values were calculated from the IC50 values using the Cheng-Prusoff equation (Cheng and Prusoff 1973).
Turning to `Cn1cc(S(=O)(=O)NCCOc2ccc3c(c2)C(C2(c4ccc(Cl)cc4)CC(F)(F)C2)NCC3)cn1` (single isomer, unassigned) [Example 138, N-[2-({1-[1-(4-Chlorophenyl)-3,3-difluorocyclobutyl]-1,2,3,4-tetrahydroisoquinolin-7-yl}oxy)ethyl]-1-methyl-1H-pyrazole-4-sulfonamide], the Ki is ≤ 100 nM.
To `O=S(=O)(NCCOc1ccc2c(c1)C(C1(c3ccc(Cl)cc3)CCC1)NCC2)C1CCNC1` (single isomer, unassigned) [Example 148, N-[2-({1-[1(4-Chlorophenyl)cyclobutyl]-1,2,3,4-tetrahydroisoquinolin-7-yl}oxy)ethyl]pyrrolidine-3-sulfonamide dihydrochloride] belongs ≤ 100 nM; to `O=S(=O)(NCCOc1ccc2c(c1)C(C1(c3ccc(Cl)cc3)CCC1)NCC2)C1CCNC1` (single isomer, unassigned) [Example 151, N-[2-({1-[1-(4-Chlorophenyl)cyclobutyl]-1,2,3,4-tetrahydroisoquinolin-7-yl}oxy)ethyl]pyrrolidine-3-sulfonamide dihydrochloride], ≤ 100 nM.
To `NCCS(=O)(=O)NCCOc1ccc2c(c1)C(C1(c3ccc(Cl)cc3)CCC1)NCC2` (single isomer, unassigned) [Example 158, 2-Amino-N-[2-({1-[1-(4-chlorophenyl)cyclobutyl]-1,2,3,4-tetrahydroisoquinolin-7-yl}oxy)ethyl]ethanesulfonamide dihydrochloride] belongs ≤ 100 nM; to `O=S(=O)(NCCOc1ccc2c(c1)C(C1(c3ccc(Cl)cc3)CCC1)NCC2)C1CCCNC1` (single isomer, unassigned) [Example 160, N-[2-({1-[1-(4-Chlorophenyl)cyclobutyl]-1,2,3,4-tetrahydroisoquinolin-7-yl}oxy)ethyl]piperidine-3-sulfonamide dihydrochloride], ≤ 100 nM.
In the case of `O=S(=O)(NCCOc1ccc2c(c1)C(C1(c3ccc(Cl)cc3)CCC1)NCC2)C1CCCNC1` (single isomer, unassigned) [Example 164, N-[2-({1-[1-(4-Chlorophenyl)cyclobutyl]-1,2,3,4-tetrahydroisoquinolin-7-yl}oxy)ethyl]piperidine-3-sulfonamide dihydrochloride] it was ≤ 1000 nM.
As to `Cn1cc(S(=O)(=O)NCCOc2ccc3c(c2)C(C2(c4ccc(Cl)cc4)CC(F)(F)C2)NCC3)cn1` (single isomer, unassigned) [Example 168, N-[2-({1-[1-(4-Chlorophenyl)-3,3-difluorocyclobutyl]-1,2,3,4-tetrahydroisoquinolin-7-yl}oxy)ethyl]-1-methyl-1H-pyrazole-4-sulfonamide], the Ki is ≤ 1000 nM.
In the case of `O=S(=O)(NCCOc1ccc2c(c1)C(C1(c3ccc(Cl)cc3)CCC1)NCC2)C1CCNC1` (single isomer, unassigned) [Example 172, N-[2-({1-[1-(4-Chlorophenyl)cyclobutyl]-1,2,3,4-tetrahydroisoquinolin-7-yl}oxy)ethyl]pyrrolidine-3-sulfonamide dihydrochloride] it was ≤ 10000 nM; in that of `O=S(=O)(NCCOc1ccc2c(c1)C(C1(c3ccc(Cl)cc3)CCC1)NCC2)C1CCNC1` (single isomer, unassigned) [Example 175, N-[2-({1-[1-(4-Chlorophenyl)cyclobutyl]-1,2,3,4-tetrahydroisoquinolin-7-yl}oxy)ethyl]pyrrolidine-3-sulfonamide dihydrochloride], ≤ 10000 nM.
In the case of `O=S(=O)(NCCOc1ccc2c(c1)C(C1(c3ccc(Cl)cc3)CCC1)NCC2)C1CCCNC1` (single isomer, unassigned) [Example 192, N-[2-({1-[1-(4-Chlorophenyl)cyclobutyl]-1,2,3,4-tetrahydroisoquinolin-7-yl}oxy)ethyl]piperidine-3-sulfonamide dihydrochloride] it was ≤ 10000 nM; in that of `O=S(=O)(NCCOc1ccc2c(c1)C(C1(c3ccc(Cl)cc3)CCC1)NCC2)C1CCCNC1` (single isomer, unassigned) [Example 193, N-[2-({1-[1-(4-Chlorophenyl)cyclobutyl]-1,2,3,4-tetrahydroisoquinolin-7-yl}oxy)ethyl]piperidine-3-sulfonamide dihydrochloride], ≤ 10000 nM; in that of `C/C=C/S(=O)(=O)NCCOc1ccc2c(c1)C(C1(c3ccc(Cl)cc3)CCC1)NCC2` (stereo not shown) [Example 88, (1E)-N-[2-({1-[1-(4-Chlorophenyl)cyclobutyl]-1,2,3,4-tetrahydroisoquinolin-7-yl}oxy)ethyl]prop-1-ene-1-sulfonamide hydrochloride], ≤ 100 nM.
In the case of `CCCS(=O)(=O)NCCNc1ccc2c(c1)C(C1(c3ccc(Cl)cc3)CCC1)NCC2` (stereo not shown) [Example 89, N-[2-({1-[1-(4-Chlorophenyl)cyclobutyl]-1,2,3,4-tetrahydroisoquinolin-7-yl}amino)ethyl]propane-1-sulfonamide dihydrochloride] it was ≤ 100 nM; in that of `CCCS(=O)(=O)NCc1ccc2c(c1)C(C1(c3ccc(Cl)cc3)CCC1)NCC2` (stereo not shown) [Example 90, N-({1-[1-(4-Chlorophenyl)cyclobutyl]-1,2,3,4-tetrahydroisoquinolin-7-yl}methyl)propane-1-sulfonamide hydrochloride], ≤ 100 nM; in that of `Cn1cc(S(=O)(=O)NCc2ccc3c(c2)C(C2(c4ccc(Cl)cc4)CCC2)NCC3)cn1` (stereo not shown) [Example 91, N-({1-[1-(4-Chlorophenyl)cyclobutyl]-1,2,3,4-tetrahydroisoquinolin-7-yl}methyl)-1-methyl-1H-pyrazole-4-sulfonamide trifluoroacetate], ≤ 100 nM.
`N#Cc1ccc2c(c1)C(C1(c3ccc(Cl)cc3)CCC1)NCC2` (stereo not shown) [Example 92, 1-[1-(4-Chlorophenyl)cyclobutyl]-1,2,3,4-tetrahydroisoquinoline-7-carbonitrile hydrochloride]: the Ki is ≤ 100 nM.
To `Cn1cnc(S(=O)(=O)NCc2ccc3c(c2)C(C2(c4ccc(Cl)cc4)CCC2)NCC3)c1` (stereo not shown) [Example 93, N-({1-[1-(4-Chlorophenyl)cyclobutyl]-1,2,3,4-tetrahydroisoquinolin-7-yl}methyl)-1-methyl-1 H-imidazole-4-sulfonamide hydrochloride] belongs ≤ 100 nM; to `O=S(=O)(CCCF)NCc1ccc2c(c1)C(C1(c3ccc(Cl)cc3)CCC1)NCC2` (stereo not shown) [Example 94, N-({1-[1-(4-Chlorophenyl)cyclobutyl]-1,2,3,4-tetrahydroisoquinolin-7-yl}methyl)-3-fluoropropane-1-sulfonamide hydrochloride], ≤ 100 nM; to `CCCS(=O)(=O)NCc1ccc2c(c1)C(C(C)(C)c1ccc(Cl)cc1)NCC2` (stereo not shown) [Example 96, N-({1-[2-(4-Chlorophenyl)propan-2-yl]-1,2,3,4-tetrahydroisoquinolin-7-yl}methyl)propane-1-sulfonamide hydrochloride], ≤ 100 nM.
In the case of `O=S(=O)(CCO)NCCOc1ccc2c(c1)C(C1(c3ccc(Cl)cc3)CCC1)NCC2` (stereo not shown) [Example 97, N-[2-({1-[1-(4-Chlorophenyl)cyclobutyl]-1,2,3,4-tetrahydroisoquinolin-7-yl}oxy)ethyl]-2-hydroxyethanesulfonamide hydrochloride] it was ≤ 100 nM; in that of `CCCS(=O)(=O)NCCOc1ccc2c(c1)C(C1(c3ccccn3)CCC1)NCC2` (stereo not shown) [Example 98, N-[2-({1-[1-(Pyridin-2-yl)cyclobutyl]-1,2,3,4-tetrahydroisoquinolin-7-yl}oxy)ethyl]propane-1-sulfonamide dihydrochloride], ≤ 100 nM; in that of `CCCS(=O)(=O)NCC(=O)Nc1ccc2c(c1)C(C1(c3ccc(Cl)cc3)CCC1)NCC2` (stereo not shown) [Example 99, N-{1-[1-(4-Chlorophenyl)cyclobutyl]-1,2,3,4-tetrahydroisoquinolin-7-yl}-N˜2˜-(propylsulfonyl)glycinamide hydrochloride], ≤ 100 nM.
In the case of `Cn1cc(S(=O)(=O)NCc2ccc3c(c2)C(C(C)(C)c2ccc(Cl)cc2)NCC3)cn1` (stereo not shown) [Example 100, N-({1-[2-(4-Chlorophenyl)propan-2-yl]-1,2,3,4-tetrahydroisoquinolin-7-yl}methyl)-1-methyl-1H-pyrazole-4-sulfonamide hydrochloride] it was ≤ 100 nM.
For `Cn1cnc(S(=O)(=O)NCc2ccc3c(c2)C(C(C)(C)c2ccc(Cl)cc2)NCC3)c1` (stereo not shown) [Example 102, N-({1-[2-(4-Chlorophenyl)propan-2-yl]-1,2,3,4-tetrahydroisoquinolin-7-yl}methyl)-1-methyl-1H-imidazole-4-sulfonamide hydrochloride], the Ki is ≤ 100 nM.
In the case of `O=S(=O)(CCCF)NCCOc1ccc2c(c1)C(C1(c3ccccn3)CCC1)NCC2` (stereo not shown) [Example 104, 3-Fluoro-N-[2-({1-[1-(pyridin-2-yl)cyclobutyl]-1,2,3,4-tetrahydroisoquinolin-7-yl}oxy)ethyl]propane-1-sulfonamide hydrochloride] it was ≤ 100 nM.
